Test results published in patent publication US20240336907A1, “NOVEL ENDO-ß-N-ACETYLGLUCOSAMINIDASE” (priority 2020, published 2024).

B1: Endo-Rp Y214F/F307Y/L306I (protein)
chain: MPSLQLQPDDKLAPVSFALKSMNELRDWTPDEKIKFNVSSVALQPRVKNALKPQLLLTHDMAGGYKEDKNIQGNNYKDIYNIQYWHLADTFVYFSHERVSIPPVNWTNACHRNGVKCLGTFLVEGNNQMHEMEALLHGPPLLNNTDDPMRLWSPYYADQLVAIAKHYGFDGWLFNIECEFFPFPTNPKFKAEELAKFLHYFKEKLHNEIPGSQLIWFDSMTNEGEIHWQNQLTWKNELFFKNTDGIFLNYWWKKEYPEMARRVAEGIGRSGLEVYFGTDVWGRHTYGGGGFKSYKGVKTAYSAMTSSAIYGMAWTYEHFEKSEFEKMDRLFWCGGKYSDYPPPPPKNPDDEKEVESDDSEDELMYGHKKGIADTVESIPVPGTDWFVTNFDRGFGNRFYYRGKRLLSQPWSHLSHQAILPNKSYRNPEIYPTDQNIKITSSLDCDHGAFLGGTSLIIKGQRFNHRESHDVETEISIPLYKLSLDASKGCSLRYIYRTLLMKDVKLTVACHFSLKTNDSVNFFKVWQPDENFSFEYDDGMRATVTTENSTESRCFLLRTTEEDTGENDWITKTINVPAVPEGSQLYITRLEVSVVLDTAGLVGLVNQVIACLGYISIIPTINSGIKTDSSRIIQDLFWKDQKYTKIGKESLDDIAQEEVHRYYGTLNWENTANVVNAWEEIDYYNVFYKESDDSATRIFLGTAFCNQFRVSGLDIILSKLPKIVIEAVNKEGYISSSGSIDLSLN

How the values were obtained:
(Fucα1,6)GlcNAc-mAb2 [1] = test: One-pot method with various sugar chain donors, Endo-Rp N172H and Endo-Si D241M/Q311L; assay type: biochemical; details: donor 50 eq., Endo-Rp N172H 8 μg, Endo-Si D241M/Q311L 10 μg, 28° C., pH 7.5
Description: Transglycosylation activity was evaluated as follows. […] When SGP was used as a donor, the transglycosylation rate was calculated in accordance with the formula for computation described in Example 5.

(Fucα1,6)GlcNAc-mAb2 [2] = test: One-pot method: Endo-Rp mutant enzymes (enzyme A) combined with Endo-Si D241Q, SGP donor; assay type: biochemical; details: Endo-Rp mutant enzyme 8 μg with Endo-Si D241Q 5 μg, SGP (50 eq.), 28° C., pH 7.5
Description: Using Endo-Rp, which is known to transfer a sugar chain from a sugar chain donor, SGP, to a GlcNAc derivative, as a representative of enzyme A, the property of enzyme A that can be used in combination with Endo-Si was investigated.
The transglycosylation activity on an antibody by the one-pot method was evaluated as follows. A 50 mM (sodium) phosphorate buffer (pH 7.5) solution (17 μL) containing (Fucα1,6)GlcNAc-mAb2 (0.5 mg), SGP (0.485 mg (50 eq.)), Endo-M N175Q (manufactured by Tokyo Kasei Kogyo Co., Ltd.) (2.5 mU) or each of various Endo-Rp mutant enzymes (8 μg) and Endo-Si D241Q (5 μg) was prepared and incubated at 28° C. A sample was taken from each of the reaction solutions at 2, 4, 6, 24, and 48 hours after initiation of the reaction and analyzed for protein by a fully automated electrophoresis system as mentioned above. In the chromatogram obtained, the transglycosylation rate was calculated in accordance with the formula for computation described in Example 5.

Molecule	Transglycosylation rate (%) ((Fucα1,6)GlcNAc-mAb2 [1]; 2 h)	Transglycosylation rate (%) ((Fucα1,6)GlcNAc-mAb2 [1]; 4 h)	Transglycosylation rate (%) ((Fucα1,6)GlcNAc-mAb2 [1]; 6 h)	Transglycosylation rate (%) ((Fucα1,6)GlcNAc-mAb2 [1]; 24 h)	Transglycosylation rate (%) ((Fucα1,6)GlcNAc-mAb2 [1]; 48 h)	Change in transglycosylation rate (%) with time ((Fucα1,6)GlcNAc-mAb2 [2]; 2 h)	Change in transglycosylation rate (%) with time ((Fucα1,6)GlcNAc-mAb2 [2]; 4 h)	Change in transglycosylation rate (%) with time ((Fucα1,6)GlcNAc-mAb2 [2]; 6 h)	Change in transglycosylation rate (%) with time ((Fucα1,6)GlcNAc-mAb2 [2]; 24 h)	Change in transglycosylation rate (%) with time ((Fucα1,6)GlcNAc-mAb2 [2]; 48 h)
sialyl glycopeptide [SGP]	3.8%	5.0%	11.2%	53.5%	89.7%	–	–	–	–	–
B1	–	–	–	–	–	34.5%	53.0%	63.4%	87.4%	88.8%
